Measurements taken from article PMC8748916, “Microbial enzymes induce colitis by reactivating triclosan in the mouse gastrointestinal tract” (Nature Communications, 2022).
Several values for one entry are separate records, joined by “and”; a condition that tells them apart may be missing. Equal values may be shown once.

Legend:
[1] = system: E. coli; set-up: method as in PMID 30062115; conditions: cited from earlier work
[2] = molecular target: F. prausnitzii GUS (Faecalibacterium prausnitzii, UniProt C7H4D2); assay: In vitro IC50 assay (TCS-G to TCS conversion, HPLC); assay type: biochemical
Procedure: (§1) Reaction mixtures containing 10 µL GUS (10 nM final), 10 µL TCS-G (200 µM final), 5 µL inhibitor (various concentrations), and 25 µL buffer (50 mM HEPES, 50 mM NaCl, various pH) or (50 mM sodium acetate, 50 mM NaCl, various pH) were incubated for 10 min and quenched with 50 µL 25% trichloroacetic acid. Samples were centrifuged 10 min at 16,000 × g, and the supernatant was analyzed using the method described for the catalytic efficiency assay. Inhibition was calculated by the equation below:1 %inhibition=100×(1−(AUCinh−AUCmax)/(AUCmin−AUCmax)) where AUCmin is the signal of the uninhibited reaction, AUCmax is the signal of the 100% inhibited reaction, and AUCinh is the signal of the reaction at a given concentration of inhibitor. Percent inhibition values were plotted against the log of inhibitor concentration, and GraphPad Prism 8.0 was used to determine IC50 values.

[3] = molecular target: T1, R. hominis 3 GUS (Roseburia hominis, UniProt A0A395V874); assay: as above; assay type: biochemical
T1 sequence (A0A395V874 1-734): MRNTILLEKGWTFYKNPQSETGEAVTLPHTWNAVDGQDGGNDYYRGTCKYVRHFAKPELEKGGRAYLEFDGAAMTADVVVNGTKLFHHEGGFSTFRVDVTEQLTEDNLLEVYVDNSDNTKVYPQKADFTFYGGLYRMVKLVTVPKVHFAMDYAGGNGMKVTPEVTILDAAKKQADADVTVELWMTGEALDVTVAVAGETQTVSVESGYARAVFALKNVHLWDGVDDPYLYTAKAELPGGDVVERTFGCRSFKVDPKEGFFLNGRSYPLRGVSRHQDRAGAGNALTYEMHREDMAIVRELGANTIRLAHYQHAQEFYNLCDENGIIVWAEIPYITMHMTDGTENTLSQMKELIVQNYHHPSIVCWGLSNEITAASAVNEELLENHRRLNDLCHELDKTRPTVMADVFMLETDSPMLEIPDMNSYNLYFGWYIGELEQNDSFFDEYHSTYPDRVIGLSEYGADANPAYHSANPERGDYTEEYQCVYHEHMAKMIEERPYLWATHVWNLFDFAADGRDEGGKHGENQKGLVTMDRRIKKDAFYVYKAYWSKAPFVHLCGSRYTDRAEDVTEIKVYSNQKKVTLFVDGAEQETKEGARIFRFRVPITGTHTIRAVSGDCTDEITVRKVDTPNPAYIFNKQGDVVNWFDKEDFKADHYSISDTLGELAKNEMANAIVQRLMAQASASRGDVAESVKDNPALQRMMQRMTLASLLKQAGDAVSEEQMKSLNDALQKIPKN
Procedure: as §1

[4] = system: Clostridiales sp. GUS; assay: as above; assay type: biochemical; conditions: for Clostridiales sp. GUS % inhibition: Fig. 4c, triplicate
Procedure: as §1

[5] = molecular target: E. eligens GUS (Lachnospira eligens, UniProt C4Z6Z2); assay: as above; assay type: biochemical
Procedure: as §1

[6] = system: enzymes extracted from human fecal samples; assay: In fimo inhibition assay (TCS-G processing by human fecal extracts); assay type: biochemical; conditions: for % Inhibition: Fig. 4d, triplicate
Procedure: Fecal extracts were prepared and proteomic analysis was performed exactly as previously described. In total, 10 g of frozen human fecal sample was thawed and added to 25 mL extraction buffer (25 mM HEPES, 25 mM NaCl pH 6.5 with Roche Complete protease inhibitor tablet) and 0.5 g autoclaved garnet beads. The mixture was vortexed until homogenous and centrifuged at low speed (300 × g for 5 min at 4 °C). The supernatant was decanted. In all, 25 mL buffer was added to the pellet and the vortex and centrifugation steps repeated. The supernatants from these steps were then combined and centrifuged at low speed for two more cycles. The resultant supernatant was sonicated twice using 1 s pulses for 1.5 min and the lysate was centrifuged at 17,000 × g for 20 min in a Beckman Coulter J2-HC centrifuge. The decanted lysate was then washed with several exchanges of extraction buffer to remove metabolites and small molecules. Total protein concentration was quantitated using a Bradford assay. The fecal lysate was diluted to 1 mg/mL concentration and snap-frozen in small aliquots.
Reaction mixtures contained 5 µL fecal extract (0.1 mg/mL final), 10 µL TCS-G (200 µM final), 5 µL GUSi (10, 1, or 0.1 µM final), and 30 µL assay buffer (25 mM HEPES, 25 mM NaCl, pH 6.5). Reactions were quenched at 30 min with 50 µL 25% trichloroacetic acid. Samples were centrifuged 20 min at 16,000 × g in a tabletop centrifuge, and the supernatant was analyzed via the same HPLC method described for the catalytic efficiency assay. Controls contained 5 µL buffer in place of GUSi. Inhibition was calculated using Eq. 1.

[7] = system: human fecal bacteria; assay: Conversion of TCS-G to TCS by anaerobically cultured human fecal bacteria in vitro; assay type: in vitro ADME; conditions: from TCS-G, replicates
[8] = GUSi 0.411523 uM, Fig. 4b, triplicate
[9] = GUSi 3.7037 uM, Fig. 4b, triplicate
[10] = GUSi 11.1111 uM, Fig. 4b, triplicate
[11] = GUSi 33.3333 uM, Fig. 4b, triplicate
[12] = GUSi 100 uM, Fig. 4b, triplicate
[13] = GUSi 33.3333 uM, Fig. 4c, triplicate

## C1CCc2c(c(N3CCOCC3)nc3sc4c(N5CCNCC5)nnnc4c23)C1 [GUSi, UNC10201652]
[1]
  effect on growth of E. coli: no effect
[2]; [8]
  F. prausnitzii GUS % inhibition: -3.256% and -6.409% and 1.703%
[2]; [9]
  F. prausnitzii GUS % inhibition: 31.508% and 41.6292%
  inhibition at 3.7037 µM: 30.3%
[2]; [10]
  F. prausnitzii GUS % inhibition: 65.4843% and 60.2667%
  inhibition at 11.1111 µM: 68.7%
[2]; [11]
  F. prausnitzii GUS % inhibition: 79.5271% and 77.5064%
  inhibition at 33.3333 µM: 74.1%
[2]; [12]
  F. prausnitzii GUS % inhibition: 90.4792% and 87.3233%
  inhibition at 100 µM: 85.7%
[2]; conversion of TCS-G (200 µM) to TCS, Loop 1 GUS
  IC50: 4.9 ± 0.8 µM
[3]
  IC50: > 100 µM
[3]; GUSi 3.7037 uM, Fig. 4c, triplicate
  R. hominis 3 GUS % inhibition: 2.389% and -2.0752% and 4.091%
[3]; [13]
  R. hominis 3 GUS % inhibition: 18.9209% and 35.4136%
  inhibition at 33.3333 µM: 23.2%
[3]; GUSi 100 uM, Fig. 4c, triplicate
  R. hominis 3 GUS % inhibition: 34.5947% and 39.5508% and 57.3604%
[4]; GUSi 11.1111 uM
  Clostridiales sp. GUS % inhibition: 28.4771% and 43.1829% and 36.9382%
[4]; GUSi 33.3333 uM
  Clostridiales sp. GUS % inhibition: 61.452% and 67.3548% and 67.8202%
[4]; GUSi 100 uM
  Clostridiales sp. GUS % inhibition: 79.8338% and 82.8373% and 85.2439%
[4]; conversion of TCS-G (200 µM) to TCS, FMN-binding GUS
  IC50: 4 ± 1 µM
[5]
  IC50: 3.1 ± 0.1 µM
[5]; GUSi 0.0457247 uM, Fig. 4b, triplicate
  inhibition at 0.0457247 µM: 0%
[5]; GUSi 0.137174 uM, Fig. 4b, triplicate
  inhibition at 0.137174 µM: 0%
[5]; [8]
  inhibition at 0.411523 µM: 0%
[5]; GUSi 1.23457 uM, Fig. 4b, triplicate
  E. eligens GUS % inhibition: 2.145% and 1.672%
[5]; [9]
  E. eligens GUS % inhibition: 67.2992% and 67.384%
  inhibition at 3.7037 µM: 64.7%
[5]; [10]
  E. eligens GUS % inhibition: 95.2204% and 97.0627%
  inhibition at 11.1111 µM: 90%
[5]; [11]
  E. eligens GUS % inhibition: 103.909% and 106.718%
  inhibition at 33.3333 µM: 97.2%
[5]; [12]
  E. eligens GUS % inhibition: 105.208% and 106.762%
  inhibition at 100 µM: 97.5%
[6]; human fecal extracts, GUSi 10, 1 or 0.1 µM
  effect on TCS-G processing by fecal enzyme mixtures ex vivo: inhibited TCS-G processing
[6]; human fecal sample F3, 0.1 uM GUSi
  % Inhibition: 26.0315% and 22.661% and 26.9159%
[6]; human fecal sample F3, 1 uM GUSi
  % Inhibition: 55.0638% and 49.4467% and 55.1636%
[6]; human fecal sample F3, 10 uM GUSi
  % Inhibition: 63.3658% and 70.4225% and 80.8879%
[6]; human fecal sample M1, 0.1 uM GUSi
  % Inhibition: 43.1579% and 25.7515% and 43.5009%
[6]; human fecal sample M1, 1 uM GUSi
  % Inhibition: 77.2204% and 69.1166% and 76.6073%
[6]; human fecal sample M1, 10 uM GUSi
  % Inhibition: 87.4836% and 92.1188% and 91.6683%
[6]; human fecal sample M3, 1 uM GUSi
  % Inhibition: 44.8187% and 47.2169% and 47.9485%
[6]; human fecal sample M3, 10 uM GUSi
  % Inhibition: 84.9872% and 79.6161% and 93.8804%

## Oc1cc(Cl)ccc1Oc1ccc(Cl)cc1Cl [TCS, Triclosan]
[7]
  TCS formed: 10.13 pmol and 12.20 pmol and 15.57 pmol
